{"source": "patent US20100298245A1", "about": "“Pharmaceutical Composition for the Treatment of IL-8 mediated diseases” (Revotar Biopharmaceuticals AG, priority 2007, published 2010)", "tested_on": "Interleukin 8 (IL-8)", "assay": "Human clinical trial in COPD patients: IL-8 level in induced sputum supernatant (enzyme immunoassay)", "type": "in vivo", "procedure": "A human clinical trial (trial) was conducted to investigate effects of the disodium salt of compound of formula (I) (1,6-Bis [3-(3-carboxymethylphenyl)-4-(2-α-D-mannopyranosyloxy)-phenyl] hexan) on patients with chronic obstructive pulmonary disease (COPD). The trial was carried out according to known methods and according to the “good clinical practices” (GCP), applicable regulatory requirements, and was based on written approval of the Independent Ethics Committee (IEC). Patients were enrolled in the trial based on inclusion and exclusion criteria known.\nPatients were treated by inhalation of the disodium salt of the compound of formula (I) for 10 days. The unit dose strength for nebulization was 70 mg in 4 ml of 0.9% NaCl twice a day (bid). To investigate laboratory parameters the procedure of induced sputum (IS) was used to harvest cells and sputum supernatant for further analysis.\nTo investigate levels of Interleukin 8 (IL-8) in the sputum supernatant, sputum was frozen after collection. Once, all samples were collected, levels of IL-8 were analyzed by using a commercial available enzyme immunoassay for the in vitro quantification of human IL-8 in biological fluids. IL-8 sample concentrations were determined employing calibration curves.", "data": [{"smiles": "O=C(O)Cc1cccc(-c2cc(CCCCCCc3ccc(O[C@H]4O[C@H](CO)[C@@H](O)[C@H](O)[C@@H]4O)c(-c4cccc(CC(=O)O)c4)c3)ccc2O[C@H]2O[C@H](CO)[C@@H](O)[C@H](O)[C@@H]2O)c1", "note": "[compound of formula (I), 1,6-Bis [3-(3-carboxymethylphenyl)-4-(2-α-D-mannopyranosyloxy)-phenyl] hexane]", "values": [{"measurement": "median value of levels of IL8 in sputum supernatant after treatment", "setting": "COPD patients, induced sputum supernatant, after inhalation of disodium salt 70 mg in 4 ml 0.9% NaCl bid for 10 days, Mann-Whitney Rank Sum Test p=0.031 vs before", "value": 4985, "unit": "pg/mL"}, {"measurement": "median value of levels of IL8 in sputum supernatant before treatment", "setting": "COPD patients, induced sputum supernatant, baseline before inhalation treatment", "value": 15419, "unit": "pg/mL"}, {"measurement": "change of the IL-8 medians", "setting": "after vs before treatment, inhalation 70 mg bid for 10 days, statistically significant (p=0.031) and clinically relevant", "value": "−68", "unit": "%"}]}]}
